Patent publication US12151010B2, “Skin lightening agent” (POLA CHEMICAL INDUSTRIES, INC., priority 2018, dated 2024)

Tested on: pigmentation of UV-irradiated test sites on the medial upper arms of panelists
Experiment: Test of skin whitening effect (pigmentation ameliorating effect), skin lightness L* by color difference meter after UV irradiation
Assay type: in vivo, human (panelists)
Settings: for Pigmentation amelioration Rating: 25-day application; for Pigmentation amelioration ΔL*: 50 μL twice a day for 25 days after 3x 1 MED UV, L* minus Comparative Example site
Description: The cosmetics according to Table 1 (Examples 1 to 9, Comparative Example, and Reference Example) were prepared respectively in a conventional manner. With regard to each of the prepared cosmetics, the skin whitening effect (pigmentation ameliorating effect) was evaluated by the following method. That is, total 8 test sites in a size of 0.5 cm×0.5 cm were established on the medial parts of the left and right upper arms of each of 10 panelists who participated voluntarily. Each established site was irradiated with a minimum erythema dose (1 MED) of UV light once a day for three consecutive days, namely totally three times. At the end of the UV irradiation on the first day of the test (at the end of the first irradiation) and thereafter each 50 μL of the cosmetics of Comparative Example and any one of Examples 1 to 9 or Reference Example were applied respectively to one site and the remaining seven sites twice a day for 25 consecutive days. The skin lightness (L* value) of each test site was measured 24 hours after the end of the 25-day application period with a color difference meter (CR-300, Konica Minolta Holdings, Inc.). By subtracting the L* value of the site to which the cosmetic of Comparative Example was applied from each L* value of the sites to which the cosmetic of Example or Reference Example was applied, the difference in skin lightness (ΔL* value) was calculated. Since the L* value decreases, as the degree of pigmentation becomes severer, it may be so judged that pigmentation is ameliorated, when the ΔL* value is higher.

[1] = content 0.01% by mass in Table 1 cosmetic
[2] = content 1% by mass in Table 1 cosmetic
[3] = content 3% by mass in Table 1 cosmetic

SMILES | Pigmentation amelioration Rating [1] | Pigmentation amelioration ΔL* [1] | Pigmentation amelioration Rating [2] | Pigmentation amelioration ΔL* [2] | Pigmentation amelioration Rating [3] | Pigmentation amelioration ΔL* [3]
NCC1CCC(C(=O)c2ccc(CCC(=O)O)cc2)CC1 (centres unmarked) [Compound 1, 3-[p-(4-aminomethylcyclohexylcarbonyl)phenyl]propionic acid] | A (0.4 < ΔL* < 0.5) | 0.47 | AA (ΔL* ≥ 0.5%) | 0.50 | AA (ΔL* ≥ 0.5%) | 0.52
CCCCCCOC(=O)CCc1ccc(C(=O)C2CCC(CN)CC2)cc1 (centres unmarked) [Compound 2, 3-[p-(4-aminomethylcyclohexylcarbonyl)phenyl]propionate hexyl] |  |  | A (0.4 < ΔL* < 0.5) | 0.43 |  | 
NCC1CCC(C(=O)c2ccc(CCCO)cc2)CC1 (centres unmarked) [Compound 3, 3-[p-(4-aminomethylcyclohexylcarbonyl)phenyl]propanol] | A (0.4 < ΔL* < 0.5) | 0.45 | A (0.4 < ΔL* < 0.5) | 0.48 |  | 
CCCCCC(=O)OCCCc1ccc(C(=O)C2CCC(CN)CC2)cc1 (centres unmarked) [Compound 4, 3-[p-(4-aminomethylcyclohexylcarbonyl)phenyl]propyl hexanoate] |  |  | A (0.4 < ΔL* < 0.5) | 0.45 |  | 
CCCCCC(=O)OCC(C)Cc1ccc(C(=O)C2CCC(CN)CC2)cc1 (centres unmarked) [Compound 5, 2-methyl-3-[p-(4-aminomethylcyclohexylcarbonyl)phenyl]propyl hexanoate] |  |  | A (0.4 < ΔL* < 0.5) | 0.42 |  | 
Cl.NCC1CCC(C(=O)c2ccc(CCC(=O)O)cc2)CC1 (centres unmarked) [Hydrochloride of Compound 1] |  |  | AA (ΔL* ≥ 0.5%) | 0.52 |  | 
NC[C@H]1CC[C@H](C(=O)O)CC1 [Tranexamic acid, reference compound] |  |  | B (ΔL* ≤ 0.4) | 0.40 |  | 
